Data from ChEMBL document CHEMBL5537115, “New broad-spectrum and potent antibacterial agents with dual-targeting mechanism: Promoting FtsZ polymerization and disrupting bacterial membranes” (Eur J Med Chem, 2024).
The source made the active and inactive calls. The calls are words filed in the database; no cut-off is given here.

How the values were obtained:
Bacillus pumilus = assay: Antibacterial activity against penicillin-susceptible Bacillus pumilus CMCC63202 assessed as bacterial growth inhibition incubated for 20 hrs by CLSI based broth microdilution method; format: functional
Staphylococcus aureus [1] = assay: Antibacterial activity against erythromycin-susceptible Staphylococcus aureus ATCC25923 incubated for 18 to 24 hrs; format: functional; details: time 18-24 hrs
Enterococcus faecium = assay: Antibacterial activity against vancomycin-susceptible Enterococcus faecium ATCC19434 assessed as bacterial growth inhibition incubated for 20 hrs by CLSI based broth microdilution method; format: functional
Escherichia coli [2] = assay: Disruption of outer membrane in Escherichia coli ATCC25922 measured after 10 mins by NPN dye based analysis; format: functional, organism-based; details: dose 4-16 µg/ml
Staphylococcus aureus [3] = assay: Selectivity ratio of MBC for Staphylococcus aureus clinical isolate to MIC for Staphylococcus aureus clinical isolate; format: functional
Escherichia coli [4] = assay: Disruption of outer membrane in Escherichia coli ATCC25922 at 16 ug/ml measured after 10 mins by NPN dye based analysis; format: functional, organism-based; details: dose 16.0 µg/ml
Staphylococcus aureus [5] = assay: Induction of morphological change in Staphylococcus aureus ATCC25923 assessed as leakage of cell contents at 16 times MIC incubated for 2 hrs by TEM analysis; format: functional, organism-based
Staphylococcus aureus [6] = assay: Bactericidal activity against Staphylococcus aureus ATCC25923 assessed as log reduction in bacterial growth at 0.125 ug/ml measured for 6 hrs by time-kill assay; format: functional; details: dose 0.125 µg/ml
Staphylococcus aureus [7] = assay: Antibacterial activity against penicillin-resistant Staphylococcus aureus ATCC31007 assessed as bacterial growth inhibition incubated for 20 hrs by CLSI based broth microdilution method; format: functional
Acinetobacter baumannii = assay: Selectivity ratio of MBC for Acinetobacter baumannii ATCC19606 to MIC for Acinetobacter baumannii ATCC19606; format: functional
Bacillus subtilis = assay: Selectivity ratio of MBC for penicillin-susceptible Bacillus subtilis ATCC9372 to MIC for penicillin-susceptible Bacillus subtilis ATCC9372; format: functional
[8] = Hemolytic activity in mouse erythrocytes at 16 ug/ml incubated for 1 hr by absorbance based assay; format: toxicity, cell-based, Erythrocyte; details: at 16 µg/mL, read-out: Activity
Staphylococcus aureus [9] = assay: Disruption of inner membrane in Staphylococcus aureus ATCC25923 measured after 12 mins by PI staining based analysis; format: functional, organism-based
Staphylococcus aureus [10] = assay: Bactericidal activity against Staphylococcus aureus ATCC25923 measured for 24 hrs by time-kill assay; format: functional, organism-based; details: dose 0.125-0.5 µg/ml
Streptococcus pyogenes = assay: Antibacterial activity against erythromycin-susceptible Streptococcus pyogenes 1 assessed as bacterial growth inhibition incubated for 20 hrs by CLSI based broth microdilution method; format: functional
Staphylococcus aureus [11] = assay: Inhibition of biofilm formation of Staphylococcus aureus ATCC25923 incubated for 20 hrs by crystal violet staining based analysis; format: functional, organism-based

With `C[n+]1cc(-c2ccccc2)c(/C=C/c2ccc(C(C)(C)C)cc2)cc1-c1ccc(C(C)(C)C)cc1.[I-]` the MIC (Bacillus pumilus) was 0.062 µg/mL, the MBC (Staphylococcus aureus [1]) was 0.25 µg/mL and the MIC (Enterococcus faecium) was 0.125 µg/mL. The Activity (Escherichia coli [2]) was “Dose-Dependent Effect”, the Ratio (Staphylococcus aureus [3]) was 2 and the Activity (Escherichia coli [4]) was “Active”. The Activity (Staphylococcus aureus [5]) was “Active”, the Activity (Staphylococcus aureus [6]) was 3.059 log10CFU/ml and the MIC (Staphylococcus aureus [7]) was 1 µg/mL. It also gave a Ratio (Acinetobacter baumannii) of 2, a Ratio (Bacillus subtilis) of 2 and a hemolysis at 1 h, 16 ug/ml [8] of 6.37%. For the same molecule, the Activity (Staphylococcus aureus [9]) was “Dose-Dependent Effect”, the Activity (Staphylococcus aureus [10]) was “Dose-Dependent Effect” and the MIC (Streptococcus pyogenes) was 2 µg/mL. The inhibition (Staphylococcus aureus [11]) was “Dose-Dependent Effect”.
